Values quoted from earlier work as cited in US10058559B2, “Treatment or prevention of an intestinal disease or disorder” (The United States of America, as represented by the …, priority 2014, dated 2018).

Experiments:
[1] = biological target: T1, PLK4 (Homo sapiens, UniProt O00444); conditions: 185-kinase panel; cited from earlier work
T1 sequence (O00444 1-970): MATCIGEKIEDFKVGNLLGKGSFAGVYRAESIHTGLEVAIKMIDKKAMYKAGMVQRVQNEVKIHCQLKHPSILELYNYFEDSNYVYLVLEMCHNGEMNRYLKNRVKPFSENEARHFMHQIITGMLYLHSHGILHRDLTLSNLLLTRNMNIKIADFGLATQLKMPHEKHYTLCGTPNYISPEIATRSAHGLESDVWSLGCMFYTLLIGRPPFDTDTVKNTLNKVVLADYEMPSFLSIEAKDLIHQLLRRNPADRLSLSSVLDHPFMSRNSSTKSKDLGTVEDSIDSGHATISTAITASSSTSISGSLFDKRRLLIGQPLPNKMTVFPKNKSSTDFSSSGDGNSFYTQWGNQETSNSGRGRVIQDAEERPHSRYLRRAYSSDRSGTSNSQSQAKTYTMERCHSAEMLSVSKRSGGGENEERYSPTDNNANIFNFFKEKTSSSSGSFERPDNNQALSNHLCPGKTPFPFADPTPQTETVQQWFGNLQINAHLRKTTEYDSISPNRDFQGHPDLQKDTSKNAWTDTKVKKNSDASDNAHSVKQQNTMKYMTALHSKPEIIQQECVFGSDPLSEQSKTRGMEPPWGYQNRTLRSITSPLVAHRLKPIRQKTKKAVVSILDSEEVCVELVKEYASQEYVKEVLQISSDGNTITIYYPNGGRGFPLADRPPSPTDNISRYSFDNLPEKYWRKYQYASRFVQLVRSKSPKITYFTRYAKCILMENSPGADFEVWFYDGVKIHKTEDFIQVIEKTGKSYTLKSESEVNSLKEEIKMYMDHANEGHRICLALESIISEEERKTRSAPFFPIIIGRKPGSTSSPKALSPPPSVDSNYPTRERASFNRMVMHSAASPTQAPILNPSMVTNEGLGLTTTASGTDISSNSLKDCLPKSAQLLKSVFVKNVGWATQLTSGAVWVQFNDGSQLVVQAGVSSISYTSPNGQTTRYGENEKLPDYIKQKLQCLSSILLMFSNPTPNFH

[2] = biological target: T2, GAK (Homo sapiens, UniProt O14976); conditions: 185-kinase panel; cited from earlier work
T2 sequence (O14976 1-1311): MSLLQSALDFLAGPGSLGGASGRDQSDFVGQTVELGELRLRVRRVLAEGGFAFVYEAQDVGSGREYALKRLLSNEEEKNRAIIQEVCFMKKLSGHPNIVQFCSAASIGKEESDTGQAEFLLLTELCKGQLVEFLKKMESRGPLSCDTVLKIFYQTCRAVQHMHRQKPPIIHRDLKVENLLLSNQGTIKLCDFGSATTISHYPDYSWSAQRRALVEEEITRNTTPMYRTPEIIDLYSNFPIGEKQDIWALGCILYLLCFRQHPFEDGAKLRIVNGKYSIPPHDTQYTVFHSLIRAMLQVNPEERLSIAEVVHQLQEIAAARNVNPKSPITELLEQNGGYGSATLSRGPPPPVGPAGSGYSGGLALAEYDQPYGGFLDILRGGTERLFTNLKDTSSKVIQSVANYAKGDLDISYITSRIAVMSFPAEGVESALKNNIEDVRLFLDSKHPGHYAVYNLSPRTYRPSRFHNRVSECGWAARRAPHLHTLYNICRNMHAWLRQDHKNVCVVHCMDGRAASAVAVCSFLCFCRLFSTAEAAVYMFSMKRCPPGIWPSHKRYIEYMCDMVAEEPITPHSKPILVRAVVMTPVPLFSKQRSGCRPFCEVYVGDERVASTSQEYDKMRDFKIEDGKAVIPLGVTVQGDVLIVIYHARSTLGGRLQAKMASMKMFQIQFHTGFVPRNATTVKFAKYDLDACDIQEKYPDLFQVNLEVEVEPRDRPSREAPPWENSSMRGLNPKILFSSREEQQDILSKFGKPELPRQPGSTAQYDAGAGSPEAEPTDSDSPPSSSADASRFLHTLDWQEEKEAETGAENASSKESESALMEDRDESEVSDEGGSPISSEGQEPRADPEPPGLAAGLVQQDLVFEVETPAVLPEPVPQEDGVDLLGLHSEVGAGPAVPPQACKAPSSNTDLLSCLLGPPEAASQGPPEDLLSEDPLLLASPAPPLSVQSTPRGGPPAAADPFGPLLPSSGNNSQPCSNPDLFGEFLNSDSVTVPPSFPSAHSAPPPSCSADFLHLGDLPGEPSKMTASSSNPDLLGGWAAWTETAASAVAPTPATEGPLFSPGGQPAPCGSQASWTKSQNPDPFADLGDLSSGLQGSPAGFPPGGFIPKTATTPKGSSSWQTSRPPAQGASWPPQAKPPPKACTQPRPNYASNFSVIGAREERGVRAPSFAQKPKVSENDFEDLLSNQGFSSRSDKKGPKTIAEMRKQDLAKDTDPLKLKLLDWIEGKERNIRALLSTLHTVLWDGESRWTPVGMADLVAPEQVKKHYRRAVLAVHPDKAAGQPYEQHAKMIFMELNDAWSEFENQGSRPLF

[3] = biological target: T3, TNK1 (Homo sapiens, UniProt Q13470); conditions: 185-kinase panel; cited from earlier work
T3 sequence (Q13470 1-666): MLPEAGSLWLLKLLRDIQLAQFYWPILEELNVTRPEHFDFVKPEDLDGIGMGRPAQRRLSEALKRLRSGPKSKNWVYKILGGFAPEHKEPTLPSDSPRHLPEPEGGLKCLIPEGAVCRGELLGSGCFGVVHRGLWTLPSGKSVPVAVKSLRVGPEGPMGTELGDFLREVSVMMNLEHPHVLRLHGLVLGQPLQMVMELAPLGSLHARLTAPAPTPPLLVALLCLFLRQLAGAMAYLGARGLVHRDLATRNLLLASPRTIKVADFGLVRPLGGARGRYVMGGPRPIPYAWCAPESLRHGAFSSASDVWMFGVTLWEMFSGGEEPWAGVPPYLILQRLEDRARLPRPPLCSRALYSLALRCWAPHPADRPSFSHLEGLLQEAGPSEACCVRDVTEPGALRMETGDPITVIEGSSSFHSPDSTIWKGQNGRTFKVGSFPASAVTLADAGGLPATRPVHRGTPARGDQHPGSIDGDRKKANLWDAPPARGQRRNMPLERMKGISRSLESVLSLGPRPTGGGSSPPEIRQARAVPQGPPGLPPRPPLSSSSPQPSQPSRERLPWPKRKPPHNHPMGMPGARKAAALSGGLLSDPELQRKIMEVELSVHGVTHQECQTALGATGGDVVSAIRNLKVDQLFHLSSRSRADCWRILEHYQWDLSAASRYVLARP

[4] = biological target: CAMKK2 (Homo sapiens, UniProt Q96RR4); conditions: 185-kinase panel; cited from earlier work
CAMKK2, sequence (Q96RR4 whole entry, species assumed): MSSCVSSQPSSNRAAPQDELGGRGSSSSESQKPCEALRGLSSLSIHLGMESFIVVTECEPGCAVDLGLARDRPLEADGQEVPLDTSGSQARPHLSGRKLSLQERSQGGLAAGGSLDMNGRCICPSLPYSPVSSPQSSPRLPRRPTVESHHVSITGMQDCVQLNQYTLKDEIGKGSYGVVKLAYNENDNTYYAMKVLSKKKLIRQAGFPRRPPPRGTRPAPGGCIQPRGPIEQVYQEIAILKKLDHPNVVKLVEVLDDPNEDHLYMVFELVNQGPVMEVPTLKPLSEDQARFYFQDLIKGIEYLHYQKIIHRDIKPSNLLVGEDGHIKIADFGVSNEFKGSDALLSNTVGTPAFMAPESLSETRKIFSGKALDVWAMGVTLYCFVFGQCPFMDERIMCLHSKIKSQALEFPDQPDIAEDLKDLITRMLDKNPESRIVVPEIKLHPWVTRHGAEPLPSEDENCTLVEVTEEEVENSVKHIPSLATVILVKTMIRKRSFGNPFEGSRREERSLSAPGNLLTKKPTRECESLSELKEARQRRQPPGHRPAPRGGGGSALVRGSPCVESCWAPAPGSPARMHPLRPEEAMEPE

[5] = biological target: T4, PIP4K2C (Homo sapiens, UniProt Q8TBX8); conditions: 185-kinase panel; cited from earlier work
T4 sequence (Q8TBX8 1-421): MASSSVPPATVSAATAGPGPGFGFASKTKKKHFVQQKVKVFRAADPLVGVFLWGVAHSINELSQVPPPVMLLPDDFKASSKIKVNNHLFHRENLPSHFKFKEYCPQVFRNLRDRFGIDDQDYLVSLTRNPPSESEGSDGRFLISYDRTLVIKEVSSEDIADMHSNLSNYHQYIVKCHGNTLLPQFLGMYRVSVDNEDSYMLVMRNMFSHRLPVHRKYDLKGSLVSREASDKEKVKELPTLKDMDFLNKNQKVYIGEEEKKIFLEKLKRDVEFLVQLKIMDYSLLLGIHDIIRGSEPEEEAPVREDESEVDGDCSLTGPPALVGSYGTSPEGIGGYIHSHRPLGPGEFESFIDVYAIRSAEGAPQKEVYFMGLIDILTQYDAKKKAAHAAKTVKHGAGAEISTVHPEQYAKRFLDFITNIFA

[6] = in vivo; cited from earlier work

In the case of `COc1cc(N2CCOCC2)ccc1Nc1ncc(F)c(Nc2ccccc2NS(C)(=O)=O)n1.Cl` [CZC-25146, N-(2-(5-Fluoro-2-(2-methoxy-4-morpholinophenylamino)pyrimidin-4-ylamino)phenyl)methanesulfonamide, HCl], the IC50 [1] is given as under 300 nM, the IC50 [2] is given as under 300 nM and the IC50 [3] is given as under 300 nM. The IC50 [4] was under 300 nM, the IC50 [5] was under 300 nM and the oral bioavailability [6] was “orally bioavailable”.
